Entries after “also recorded” stand apart in the source; their conditions may differ.
How the values were obtained:
IRF-7 mRNA = experiment: Northern blot of IRF-7 mRNA in RSV-infected A549 cells; format: cell-based, human; details: 400 μM
Procedure: (§1) Northern Blot. Total RNA was extracted from control and infected A549 cells by the acid guanidium thiocyanate-phenol chloroform method (18). Twenty micrograms of RNA were fractionated on a 1.2% agarose-formaldehyde gel, transferred to nylon membranes and hybridized to a radiolabeled RANTES, IRF-1, -3 and -7 cDNAs, as previously described (19). Hybridization temperature for all probes was 55° C. After washing, membranes were exposed for autoradiography using Kodak XAR film at −70° C. using intensifying screens. After exposure, membranes were stripped and rehybridized with a β-actin probe.

RANTES = experiment: RSV-induced RANTES secretion in SAE cells (ELISA); format: cell-based, human
Procedure: (§2) Cell culture and infection of epithelial cells with RSV. A549, human alveolar type II-like epithelial cells (ATCC, Manassas, Va.), were maintained in F12K medium containing 10% (v/v) fetal bovine serum (FBS), 10 mM glutamine, 100 IU/ml penicillin and 100 μg/ml streptomycin. Small alveolar epithelial cells (SAE) were obtained from Clonetics (San Diego, Calif.) and grown according to the company instructions. Cell monolayers were infected with RSV at multiplicity of infection (MOI) of 1 (unless otherwise stated), as described (17). An equivalent amount of a 20% sucrose solution was added to uninfected A549 cells, as a control. For the antioxidant experiments, cells were pretreated with the antioxidants for one hour and then infected in the presence of the antioxidants. Since BHA was diluted in ethanol, equal amounts of ethanol were added to untreated cells, as a control. Total number of cells, cell viability and viral replication, following antioxidant treatment, were measured by trypan blue exclusion and by plaque assay, respectively. RANTES ELISA. Immunoreactive RANTES was quantitated by a double antibody ELISA kit (DuoSet, R&D Systems, Minneapolis, Minn.) following the manufacturer's protocol.

β-actin = β-actin mRNA (Northern blot) in A549 cells; format: cell-based, human; details: 400 μM, compared to untreated cells
Procedure: as §1

human RANTES promoter = experiment: RANTES promoter luciferase reporter in RSV-infected A549 cells; format: cell-based; details: RSV 24 hours, 400 μM
Source text: Plasmid construction and cell transfection. A fragment of the human RANTES promoter spanning from −220 to +55 nucleotides (nt), relative to the mRNA start site designated +1 was cloned into the luciferase reporter gene vector pGL2 (Promega, Madison, Wis.) and defined as pGL2-220. Site mutations of the RANTES ISRE in the context of pGL2-220 plasmid were introduced by PCR using the following upstream and downstream mutagenic primers (mutations in lower cases): […]
Logarithmically growing A549 cells were transfected in triplicate in 60 mm petri dishes by DEAE-Dextran, as previously described (20). Cells were incubated in 2 ml of HEPES buffered Dulbecco's modified Eagle's medium (DMEM) (10 mM Hepes, pH 7.4) containing 20 μl of 60 mg/ml DEAE-Dextran (Amersham Pharmacia Biotec, Arlington Heights, Ill.) premixed with 6 μg of RANTES-pGL2 plasmids and 1 μg cytomegalovirus (CMV)-β galactosidase internal control plasmid. After 3 hours, media was removed and 0.5 ml of 10% (v/v) DMSO in phosphate buffered saline (PBS) was added to the cells for 2 minutes. Cells were washed with PBS and cultured overnight in 10% FBS/DMEM. The next morning, cells were infected with RSV and at 24 hours post-infection cells were lysed to measure independently luciferase and β-galactosidase reporter activity, as previously described (20). Luciferase was normalized to the internal control β-galactosidase activity. […]

A549 cells = experiment: Total number of cells and cell viability by trypan blue exclusion; format: cell-based, human; details: 400 μM, data not shown
Procedure: as §2, with “respectively.” for “respectively. RANTES ELISA. Immunoreactive RANTES was quantitated by a double antibody ELISA kit (DuoSet, R&D Systems, Minneapolis, Minn.) following the manufacturer's protocol.”

human IRF-7 promoter = experiment: IRF-7 promoter luciferase reporter in A549 cells; format: cell-based
Procedure: Cell transfection. To investigate IRF-1 and -7 gene transcription, A549 cells were transiently transfected with the IRF-1 or -7 promoter, linked to the luciferase reporter gene. Logarithmically growing A549 cells were transfected in triplicate in 60 mm petri dishes by DEAE-Dextran, as previously described (20). Cells were incubated in 2 ml of HEPES buffered DMEM (10 mM Hepes, pH 7.4) containing 20 μl of 60 mg/ml DEAE-Dextran (Amersham Pharmacia Biotec, Arlington Heights, Ill.) premixed with 6 μg of either IRF-1 or -7 plasmids and 1 μg CMV-β galactosidase internal control plasmid. After 3 hours, media was removed and 0.5 ml of 10% (v/v) DMSO in PBS was added to the cells for 2 minutes. Cells were washed with PBS and cultured overnight in 10% FBS/DMEM. The next morning, cells were infected with RSV and cells were lysed at different times post-infectionto measure independently luciferase and galactosidase reporter activity, as previously described (20). Luciferase was normalized to the internal control galactosidase activity. All experiments were performed in duplicate or triplicate.

IRF-1 mRNA = experiment: Northern blot of IRF-1 mRNA in RSV-infected A549 cells; format: cell-based, human; details: 400 μM
Procedure: as §1

STAT-1 = experiment: Western blot of phosphorylated and total nuclear STAT-1 in RSV-infected A549 cells; format: cell-based, human; details: nuclear proteins, 400 μM
Procedure: Western Immunoblot. Nuclear proteins were prepared as previously described, fractionated by SDS-PAGE and transferred to PVDF membrane (20). Membranes were blocked with 5% albumin in TBS-Tween and incubated overnight with antibody recognizing the tyrosine phosphorylated form of STAT-1 and STAT-3 (Santa Cruz Biotech, Santa Cruz, Calif.). Membranes were stripped and reprobed with antibodies to STAT-1 and STAT-3 (Santa Cruz Biotech, Santa Cruz, Calif.). For secondary detection, a horseradish-coupled anti-rabbit or anti-mouse antibody was used (Santa Cruz Biotech, Santa Cruz, Calif.) in the enhanced chemiluminescence assay (Amersham Life Science, Arlington Heights, Ill.).

COc1ccc(O)c(C(C)(C)C)c1 [BHA, butylated hydroxyanisol]
IRF-7 mRNA accumulation (IRF-7 mRNA; 6 and 12 hours post-infection): almost completely blocked | IRF-7 mRNA accumulation (IRF-7 mRNA; 24 hours post-infection): significantly reduced | effectiveness in reducing RSV-induced RANTES secretion, compared among the antioxidants (RANTES): most effective | RSV-induced RANTES production (RANTES; 400 μM, 24 hours, ELISA): significantly reduced | levels of the housekeeping gene β-actin (β-actin): does not affect; also recorded: not systematically reduced | RSV-induced luciferase activity (RANTES promoter) (human RANTES promoter): almost completely abolished | total cell number and viability (A549 cells): unchanged | basal level of transcription (IRF-7 promoter) (human IRF-7 promoter; A549 cells): did not affect | RSV-induced luciferase activity (IRF-7 promoter) (human IRF-7 promoter; RSV 6 hours, 400 μM): completely abolished | IRF-1 mRNA accumulation (IRF-1 mRNA; 6 and 12 hours post-infection): almost completely blocked | IRF-1 mRNA accumulation (IRF-1 mRNA; 24 hours post-infection): significantly reduced | RSV-induced STAT-1 phosphorylation (STAT-1): completely blocked | RSV-inducible nuclear STAT-1 form (STAT-1): disappears | nuclear STAT-1 form present in uninfected and infected cells (STAT-1): not affected

— patent US6699459B2, “Methods of treating lung inflammation” (The Board of Regents of the University of Texas System, priority 2001, dated 2004)
